From PubChem BioAssay AID1963842 (Molecular Pharmacology Branch, DTP, NCI, 2024)
pIC50: −log10 of the molar value.

System: 677734-321-R-J1-PDC complex spheroid viability
Test: Anticancer human tumor 677734-321-R-J1-PDC patient-derived soft tissue sarcoma cell line growth inhibition [POLQ]
Conditions: for pIC50: curve of first compound; for viability, T/C: stronger effect = lower value
How it was run: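 Patient-derived tumour cells were co-cultured with HUVEC and mesenchymal stem cells as multicellular spheroids at 37 °C. They were treated with POLQ inhibitors (novobiocin, ART-558, RP6685) alone or combined with other agents. Top concentrations were at or near clinical Cmax (otherwise 10 microM; SN-38 at 1 microM), decreasing in half-log steps.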

[1] = second compound 0.0316 µM, first compound 0.0316 µM
[2] = second compound 0.0316 µM, first compound 0.1 µM
[3] = second compound 0.1 µM, first compound 0.0316 µM
[4] = second compound 0.1 µM, first compound 0.1 µM
[5] = second compound 0.316 µM, first compound 0.0316 µM
[6] = second compound 0.316 µM, first compound 0.1 µM
[7] = second compound 1 µM, first compound 0.0316 µM
[8] = second compound 1 µM, first compound 0.1 µM
[9] = second compound 3.16 µM, first compound 0.0316 µM
[10] = second compound 3.16 µM, first compound 0.1 µM
[11] = second compound 10 µM, first compound 0.0316 µM
[12] = second compound 10 µM, first compound 0.1 µM
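Further: spheroids exposed to compounds for one week.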
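Wherever viability, T/C is given: 100% = vehicle DMSO treated spheroids.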

Cn1ncnc1[C@H]1c2n[nH]c(=O)c3cc(F)cc(c23)N[C@@H]1c1ccc(F)cc1 + COC1C(OC(N)=O)C(O)C(Oc2ccc3c(O)c(NC(=O)c4ccc(O)c(CC=C(C)C)c4)c(=O)oc3c2C)OC1(C)C was tested, and the pIC50 (second compound 0.0316 µM) was less than 7.00, the pIC50 (second compound 0.1 µM) was less than 7.00 and the pIC50 (second compound 0.316 µM) was less than 7.00. For the same molecule, the pIC50 (second compound 1 µM) was less than 7.00, the pIC50 (second compound 3.16 µM) was less than 7.00 and the pIC50 (second compound 10 µM) was less than 7.00. For the same molecule, the viability, T/C (second compound 0.0316 µM, first compound 0.000316 µM) was 101%, the viability, T/C (second compound 0.0316 µM, first compound 0.001 µM) was 103% and the viability, T/C (second compound 0.0316 µM, first compound 0.00316 µM) was 99.7%. For the same molecule, the viability, T/C (second compound 0.0316 µM, first compound 0.01 µM) was 101%, the viability, T/C [1] was 98.8% and the viability, T/C [2] was 85.7%. It also gave a viability, T/C (second compound 0.1 µM, first compound 0.000316 µM) of 97.6%, a viability, T/C (second compound 0.1 µM, first compound 0.001 µM) of 101% and a viability, T/C (second compound 0.1 µM, first compound 0.00316 µM) of 106%. It also gave a viability, T/C (second compound 0.1 µM, first compound 0.01 µM) of 101%, a viability, T/C [3] of 98.5% and a viability, T/C [4] of 95.2%. The viability, T/C (second compound 0.316 µM, first compound 0.000316 µM) was 106%, the viability, T/C (second compound 0.316 µM, first compound 0.001 µM) was 97.8% and the viability, T/C (second compound 0.316 µM, first compound 0.00316 µM) was 98.5%. For the same molecule, the viability, T/C (second compound 0.316 µM, first compound 0.01 µM) was 104%, the viability, T/C [5] was 97.6% and the viability, T/C [6] was 93.4%. The viability, T/C (second compound 1 µM, first compound 0.000316 µM) was 109%, the viability, T/C (second compound 1 µM, first compound 0.001 µM) was 102% and the viability, T/C (second compound 1 µM, first compound 0.00316 µM) was 103%. The viability, T/C (second compound 1 µM, first compound 0.01 µM) was 104%, the viability, T/C [7] was 96.3% and the viability, T/C [8] was 92.5%. For the same molecule, the viability, T/C (second compound 3.16 µM, first compound 0.000316 µM) was 108%, the viability, T/C (second compound 3.16 µM, first compound 0.001 µM) was 94.7% and the viability, T/C (second compound 3.16 µM, first compound 0.00316 µM) was 103%. The viability, T/C (second compound 3.16 µM, first compound 0.01 µM) was 100%, the viability, T/C [9] was 106% and the viability, T/C [10] was 94.4%. The viability, T/C (second compound 10 µM, first compound 0.000316 µM) was 103%, the viability, T/C (second compound 10 µM, first compound 0.001 µM) was 100% and the viability, T/C (second compound 10 µM, first compound 0.00316 µM) was 106%. For the same molecule, the viability, T/C (second compound 10 µM, first compound 0.01 µM) was 103%, the viability, T/C [11] was 99.4% and the viability, T/C [12] was 93.3%.
C#Cc1c(F)ccc2cc(O)cc(-c3ncc4c(N5CC6CCC(C5)N6)nc(OCC56CCCN5CC(F)C6)nc4c3F)c12 (centres undefined) + Nc1ccc(C#CCN(C(=O)Cc2ncc(C(F)(F)F)cc2C(F)(F)F)c2ccc(F)cc2)nn1 showed a pIC50 (second compound 0.0316 µM) of less than 5.00, a pIC50 (second compound 0.1 µM) of less than 5.00 and a pIC50 (second compound 0.316 µM) of less than 5.00. It also gave a pIC50 (second compound 1 µM) of less than 5.00, a pIC50 (second compound 3.16 µM) of less than 5.00 and a pIC50 (second compound 10 µM) of less than 5.00. The viability, T/C [1] was 104%, the viability, T/C [2] was 117% and the viability, T/C (second compound 0.0316 µM, first compound 0.316 µM) was 115%. It also gave a viability, T/C (second compound 0.0316 µM, first compound 1 µM) of 117%, a viability, T/C (second compound 0.0316 µM, first compound 3.16 µM) of 115% and a viability, T/C (second compound 0.0316 µM, first compound 10 µM) of 98.7%. For the same molecule, the viability, T/C [3] was 106%, the viability, T/C [4] was 116% and the viability, T/C (second compound 0.1 µM, first compound 0.316 µM) was 112%. The viability, T/C (second compound 0.1 µM, first compound 1 µM) was 118%, the viability, T/C (second compound 0.1 µM, first compound 3.16 µM) was 98.4% and the viability, T/C (second compound 0.1 µM, first compound 10 µM) was 79.6%. The viability, T/C [5] was 113%, the viability, T/C [6] was 124% and the viability, T/C (second compound 0.316 µM, first compound 0.316 µM) was 96.9%. For the same molecule, the viability, T/C (second compound 0.316 µM, first compound 1 µM) was 110%, the viability, T/C (second compound 0.316 µM, first compound 3.16 µM) was 103% and the viability, T/C (second compound 0.316 µM, first compound 10 µM) was 103%. For the same molecule, the viability, T/C [7] was 105%, the viability, T/C [8] was 104% and the viability, T/C (second compound 1 µM, first compound 0.316 µM) was 109%. For the same molecule, the viability, T/C (second compound 1 µM, first compound 1 µM) was 114%, the viability, T/C (second compound 1 µM, first compound 3.16 µM) was 119% and the viability, T/C (second compound 1 µM, first compound 10 µM) was 94.1%. It also gave a viability, T/C [9] of 114%, a viability, T/C [10] of 98% and a viability, T/C (second compound 3.16 µM, first compound 0.316 µM) of 122%. For the same molecule, the viability, T/C (second compound 3.16 µM, first compound 1 µM) was 111%, the viability, T/C (second compound 3.16 µM, first compound 3.16 µM) was 96.8% and the viability, T/C (second compound 3.16 µM, first compound 10 µM) was 96.5%. For the same molecule, the viability, T/C [11] was 107%, the viability, T/C [12] was 99.8% and the viability, T/C (second compound 10 µM, first compound 0.316 µM) was 112%. It also gave a viability, T/C (second compound 10 µM, first compound 1 µM) of 108%, a viability, T/C (second compound 10 µM, first compound 3.16 µM) of 94.8% and a viability, T/C (second compound 10 µM, first compound 10 µM) of 88.8%.
